The record followed here is ChEMBL document CHEMBL5154692, “Synthesis of novel thiazolyl hydrazone derivatives as potent dual monoamine oxidase-aromatase inhibitors” (Eur J Med Chem, 2022).

SMILES strings stand for the structures.

The target of test [1] is T1, Amine oxidase [flavin-containing] A (Homo sapiens, UniProt P21397).
T1 sequence (P21397 whole entry): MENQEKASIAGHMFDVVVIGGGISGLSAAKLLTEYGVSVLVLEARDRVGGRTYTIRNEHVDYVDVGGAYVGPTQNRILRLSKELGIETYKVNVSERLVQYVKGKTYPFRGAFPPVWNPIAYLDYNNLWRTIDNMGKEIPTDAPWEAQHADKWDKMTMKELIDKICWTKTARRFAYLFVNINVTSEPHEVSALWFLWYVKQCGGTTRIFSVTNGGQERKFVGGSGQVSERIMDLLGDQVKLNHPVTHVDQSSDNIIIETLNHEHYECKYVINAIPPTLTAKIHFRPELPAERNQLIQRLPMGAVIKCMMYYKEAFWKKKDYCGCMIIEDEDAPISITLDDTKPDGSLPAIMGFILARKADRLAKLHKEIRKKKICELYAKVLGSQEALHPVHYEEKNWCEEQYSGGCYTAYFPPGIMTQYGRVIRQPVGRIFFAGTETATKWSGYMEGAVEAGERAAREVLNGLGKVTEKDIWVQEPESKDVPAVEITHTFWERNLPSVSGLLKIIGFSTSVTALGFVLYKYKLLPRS
In words: Inhibition of MAO-A (unknown origin) at 1 mM relative to control.

Test [2] has as its target T1, Amine oxidase [flavin-containing] A. In words: Inhibition of MAO-A (unknown origin) at 10 mM relative to control. Also noted: dose or concentration left out as unconfirmed.
Test [3] addresses T2, Amine oxidase [flavin-containing] B (Homo sapiens, UniProt P27338).
T2 sequence (P27338 whole entry): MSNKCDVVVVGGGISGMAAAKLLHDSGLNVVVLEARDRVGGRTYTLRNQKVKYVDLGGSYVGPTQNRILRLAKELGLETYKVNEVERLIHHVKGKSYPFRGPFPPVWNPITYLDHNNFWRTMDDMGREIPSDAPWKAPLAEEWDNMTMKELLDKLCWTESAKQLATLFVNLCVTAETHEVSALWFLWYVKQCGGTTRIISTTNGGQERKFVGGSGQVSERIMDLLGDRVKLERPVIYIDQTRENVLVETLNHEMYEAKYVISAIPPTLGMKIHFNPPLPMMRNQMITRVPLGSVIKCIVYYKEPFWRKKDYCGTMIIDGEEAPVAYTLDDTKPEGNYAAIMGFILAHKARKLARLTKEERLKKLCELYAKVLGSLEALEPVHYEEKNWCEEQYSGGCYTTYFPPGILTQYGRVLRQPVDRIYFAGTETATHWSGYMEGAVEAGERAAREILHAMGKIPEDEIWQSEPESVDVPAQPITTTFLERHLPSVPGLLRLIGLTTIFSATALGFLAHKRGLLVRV
In words: Inhibition of MAO-B (unknown origin).

For the next test, the target named is T3, Aromatase (Homo sapiens, UniProt P11511).
T3 sequence (P11511 whole entry): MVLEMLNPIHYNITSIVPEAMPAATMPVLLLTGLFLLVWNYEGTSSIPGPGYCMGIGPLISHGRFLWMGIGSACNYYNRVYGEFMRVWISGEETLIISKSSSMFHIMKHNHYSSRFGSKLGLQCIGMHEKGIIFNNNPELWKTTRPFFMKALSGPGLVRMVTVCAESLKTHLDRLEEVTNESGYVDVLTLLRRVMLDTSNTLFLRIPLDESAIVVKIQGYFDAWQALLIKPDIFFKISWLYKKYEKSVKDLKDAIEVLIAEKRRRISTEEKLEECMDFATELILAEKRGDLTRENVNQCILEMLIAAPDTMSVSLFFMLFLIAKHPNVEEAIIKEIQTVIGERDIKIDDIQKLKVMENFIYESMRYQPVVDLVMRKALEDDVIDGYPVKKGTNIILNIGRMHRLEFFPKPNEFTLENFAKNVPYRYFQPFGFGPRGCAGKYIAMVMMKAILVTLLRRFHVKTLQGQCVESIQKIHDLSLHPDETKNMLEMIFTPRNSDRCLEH
In words: Inhibition of aromatase (unknown origin).

For test [4], the target named is T1, Amine oxidase [flavin-containing] A. As to the kind of experiment: Inhibition of MAO-A (unknown origin).

Take `COc1ccc(-c2csc(N/N=C/c3ccc4cc(OC)ccc4c3)n2)cc1`: in test [1], the inhibition at 1000 µM was found to be 50%. Moreover, the inhibition in test [2] amounted to 28.1%.

`COc1ccc2cc(/C=N/Nc3nc(-c4ccc(F)cc4)cs3)ccc2c1` displayed an inhibition at 1000 µM in test [1] of 52.2%. Also, the inhibition in test [2] worked out at 35.5%.

Regarding `COc1ccc2cc(/C=N/Nc3nc(-c4ccc(C)cc4)cs3)ccc2c1`, testing at 1000 µM in test [1] gave an inhibition of 49.8%. The molecule also registered an inhibition in test [2] of 31.1%.

Consider `CCOC(=O)Cc1csc(N/N=C/c2ccc3cc(OC)ccc3c2)n1`, for which the inhibition at 1000 µM in test [1] was 60.2%. In test [2], this molecule returned an inhibition of 30.2%. The values for the IC50 (in test [3]; on Aromatase) were 39 nM and 31 nM, respectively.

Turning to `COc1ccc2cc(/C=N/Nc3nc(-c4ccccc4)c(C)s3)ccc2c1`, in test [1], at 1000 µM the inhibition was 90.9%. Moreover, the inhibition in test [2] worked out at 82.3%. For the same molecule, it took 72 nM to reach half-maximal inhibition in test [4] (IC50).

In test [1], `COc1ccc2cc(/C=N/NC3=NC(=O)CS3)ccc2c1` had an inhibition at 1000 µM of 55.8%. In test [2], this molecule registered an inhibition of 33.9%. The IC50 at Aromatase amounted to 42 nM.

Molecule `COc1ccc2cc(/C=N/Nc3nc(-c4cccc([N+](=O)[O-])c4)cs3)ccc2c1` came in with an inhibition at 1000 µM in test [1] of 90.5%. Also, in test [2], the inhibition came out at 84.1%. Besides, the concentration for half-maximal inhibition (IC50) in test [4] came out at 68 nM; in test [3] it was 46 nM.

For the molecule `COc1ccc2cc(/C=N/Nc3nc(-c4ccc5ccccc5c4)cs3)ccc2c1`, at 1000 µM the inhibition in test [1] was 55.9%. Besides, the inhibition in test [2] amounted to 35.7%.

In turn, `COc1ccc2cc(/C=N/Nc3nc(-c4ccc(Cl)cc4)cs3)ccc2c1` gave an inhibition at 1000 µM in test [1] of 48.4%. In test [2], this molecule returned an inhibition of 28.8%.

Regarding `COc1ccc2cc(/C=N/Nc3nc(-c4ccc(-c5ccccc5)cc4)cs3)ccc2c1`, the inhibition at 1000 µM in test [1] turned out to be 59.2%. The same molecule showed an inhibition in test [2] of 34.2%.

In test [1], `COc1ccc2cc(/C=N/Nc3nc(-c4cccc(Cl)c4)cs3)ccc2c1` came in with an inhibition at 1000 µM of 48.4%. The molecule further yielded an inhibition in test [2] of 39.9%.

As to `COc1ccc2cc(/C=N/Nc3nc(-c4ccc(S(C)(=O)=O)cc4)cs3)ccc2c1`, the inhibition at 1000 µM in test [1] was 53.5%. This molecule also returned an inhibition in test [2] of 37%.

In test [1], `COc1ccc2cc(/C=N/Nc3nc(-c4ccccc4)cs3)ccc2c1` gave an inhibition at 1000 µM of 51.4%. Moreover, in test [2], the inhibition stood at 26.6%.

`COc1ccc2cc(/C=N/Nc3nc(-c4ccc(Cl)c(Cl)c4)cs3)ccc2c1`: the inhibition at 1000 µM in test [1] came out at 47.7%. The inhibition in test [2] is 32.5%.

In the case of `COc1ccc2cc(/C=N/Nc3nc(-c4ccc([N+](=O)[O-])cc4)cs3)ccc2c1`, the inhibition at 1000 µM in test [1] came to 57.8%. Besides, in test [2], the inhibition came to 33.4%. This molecule showed an IC50 in test [3] of 82 nM.

The molecule `COc1ccc2cc(/C=N/Nc3nc(-c4cccc(F)c4)cs3)ccc2c1` returned an inhibition at 1000 µM in test [1] of 59.4%. The inhibition in test [2] came out at 32.1%.

`CCOC(=O)c1sc(N/N=C/c2ccc3cc(OC)ccc3c2)nc1C` returned an inhibition at 1000 µM in test [1] of 58.2%. Moreover, in test [2], the inhibition was found to be 29.3%.

On to `COc1ccc2cc(/C=N/Nc3nc(-c4ccc(C#N)cc4)cs3)ccc2c1`, for which the inhibition at 1000 µM in test [1] was 58.7%. Moreover, the inhibition in test [2] is 30.4%.

On to `COc1cccc(-c2csc(N/N=C/c3ccc4cc(OC)ccc4c3)n2)c1`, for which at 1000 µM the inhibition in test [1] was 56.7%. In test [2], this molecule gave an inhibition of 21.9%.

On to `COc1ccc2cc(/C=N/Nc3nc(-c4cc5ccccc5o4)cs3)ccc2c1`, for which the inhibition at 1000 µM in test [1] turned out to be 58.4%. Further, the inhibition in test [2] is 27.7%.

`COc1ccc2cc(/C=N/Nc3nc(C)c(C)s3)ccc2c1` yielded an inhibition at 1000 µM in test [1] of 54.4%. The inhibition in test [2] worked out at 30.9%.

One may read the inhibition as the relative decrease from the control value, in per cent. One may read the IC50 as the midpoint of a concentration-inhibition curve.
